Reference: US5428013A, “Differential diagnosis and treatment of the states of growth hormone insufficiency (or deficiency) with an alpha-2-adrenergic agonist and a growth hormone releasing peptide” (priority 1992, dated 1995)
Where no end group is shown, it is not given here.

How the values were obtained:
GH secretion [1] = test: Provocative tests for GH secretion in short children (clonidine, propranolol plus exercise, insulinic hypoglycemia, placebo plus GHRH, clonidine plus GHRH); assay type: in vivo
Excerpt: Twenty-four children (17 boys and 7 girls) with stature below the third percentile (P3), participated in the study with informed consent (parent and child). Ages of the children ranged from 7 to 13.9 years. In all but seven of the children, weight was more than or equal to P3. […] Two children had received prophylactic cranial irradiation due to brain tumors, five and three years before the study. […] All children had been previously studied for their GH insufficiency. Studies included growth velocity, bone age, classical provocative tests for GH secretion (i.e. clonidine, insulin hypoglycemia and propranolol plus exercise), plasma somatomedin C (Sm C) (Insulin Growth Factor-I (IGF-I)) analysis, and analysis of the spontaneous pattern of nocturnal GH secretion.
Studies commenced at 09.00 h after an overnight fast and bed rest and thirty minutes after the insertion of a nonthrombogenic catheter for blood withdrawal in a forearm vein. The study consisted of administering clonidine (Catapresan, Boehringer Ingelheim, Spain) orally at 150 micrograms/m^2 at time 0, followed by administering GHRH (GRF 1-29, Serono, Spain) as an intravenous bolus at 1 microgram/kg at time 60 minutes. An additional control for short children consisted of administering a placebo at time 0, followed by administering GHRH at time 60 minutes. Blood samples for GH analysis (RIA, BioMerieux, France) were taken at 0 and 60 minutes and at 15 minute intervals for one hour following GHRH administration. The mean intra-assay coefficient of variation was 5.7, 3.2 and 4.3% at mean GH concentrations of 1.5, 10 and 22 micrograms/L respectively. To avoid interassay variations, all samples from a subject were run in the same assay.
To confirm the uniqueness of such combined clonidine plus GHRH test in the differentiation of GH-deficient states, the theoretical GH responses to this test in short children were calculated on the basis of the equation obtained from the multiple regression analysis relating chronological and bone age with the amplitude of GH peaks in normal children. […] Responses between the -20 to +20% range were considered to be normals, as they fitted between the standard deviation from the mean in the group of normal children.

GH secretion [2] = details: cited from earlier work
[3] = Growth velocity of short children treated with GH; assay type: in vivo; details: three children treated with GH for 9 months; increased from 3 cm/yr
Excerpt: Twenty-four children (17 boys and 7 girls) with stature below the third percentile (P3), participated in the study with informed consent (parent and child). Ages of the children ranged from 7 to 13.9 years. In all but seven of the children, weight was more than or equal to P3. […] Two children had received prophylactic cranial irradiation due to brain tumors, five and three years before the study. Three children had been treated with GH for 9 months; their growth velocity increased during this therapy from 3 to 8 cm/yr. All children had been previously studied for their GH insufficiency. Studies included growth velocity, bone age, classical provocative tests for GH secretion (i.e. clonidine, insulin hypoglycemia and propranolol plus exercise), plasma somatomedin C (Sm C) (Insulin Growth Factor-I (IGF-I)) analysis, and analysis of the spontaneous pattern of nocturnal GH secretion. […] Mean (±SEM) plasma Sm C was 488±376 U/L. Mean (±SEM) growth velocity was 3.7±0.9 cm/yr.

[4] = patient group 1, short children
[5] = patient group 2, short children
[6] = patient group 3, short children
[7] = patient group 4, short children
[8] = patient group 5, short children

Molecule | Number of positive (+, >10 μg/L) GH responses (GH secretion [1]; [4]) | Number of positive (+, >10 μg/L) GH responses (GH secretion [1]; [5]) | Number of positive (+, >10 μg/L) GH responses (GH secretion [1]; [6]) | Number of positive (+, >10 μg/L) GH responses (GH secretion [1]; [7]) | Number of positive (+, >10 μg/L) GH responses (GH secretion [1]; [8]) | further results
Clc1cccc(Cl)c1NC1=NCCN1 [clonidine, 2-(2,6-dichloroanilino)-2-imidazoline] | 0 | 4 | 2 | 3 | 1 | Share of children appearing GH-deficient on the basis of a low GH response (<10 μg/L) to the provocative test (GH secretion [1]; 24 short children, earlier work-up): 50%; Number of negative (-, <10 μg/L) GH responses (GH secretion [1]; [6]): 2; Effect of pretreatment with clonidine on the GH response to GHRH (GH secretion [1]; patient group 5, malnourished children): did not significantly enhance the GH response to GHRH; Effect on GHRH-induced GH secretion (GH secretion [2]; normal subjects, short, normal children and adults (literature)): enhances the GH response to GHRH
CN(C)C(=O)Oc1ccc[n+](C)c1 [pyridostigmine] |  |  |  |  |  | Usefulness as treatment of short stature (GH secretion [2]; literature (Ghigo 1989)): does not represent a useful treatment of short stature
GH: exogenous growth hormone given to three children for 9 months |  |  |  |  |  | Growth velocity during GH therapy [3]: 8 cm/yr
GHRH: growth hormone-releasing hormone, used as GRF 1-29 (Serono, Spain), intravenous bolus (YADAIFTNSYRKVLGQLSARKLLQDIMSR; ends and bridges not checked; UniProt P01286 32-60, looked up, fragment) | 2 | 3 | 3 | 3 | 3 | Number of patients with deficient GHRH-induced GH response (GH peak <10 μg/L) (GH secretion [1]; 24 short children, pretreatment with placebo): 9 patients; Number of negative (-, <10 μg/L) GH responses (GH secretion [1]; [4]): 4; Number of negative (-, <10 μg/L) GH responses (GH secretion [1]; [5]): 2; Mean GH peak response to GHRH (GH secretion [1]; short children, placebo at time 0, GHRH i.v. bolus at 60 minutes): 19.5 ± 15.7 µg/L
